# Experimental data: patent US20190335746A1, “ANTIMICROBIAL GAS RELEASING AGENTS AND SYSTEMS AND METHODS FOR USING THE SAME” (priority 2016, published 2019)
# Assay: Spiking the product matrices with ClO2 gas
# Conditions: product matrices spiked with ClO2 gas
# Description: Headspace samples underwent a colorimetric analysis for ClO2 gas.
compound,measurement,value
"[O][Cl+][O-] [ClO2 gas, chlorine dioxide]",chlorine dioxide in the residual juice and tomato samples after spiking,no detectable chlorine dioxide
